Results taken from patent publication US12466820B2, “Amino quinazoline derivatives as P2X3 inhibitors” (CHIESI FARMACEUTICI S.p.A., priority 2019, dated 2025).
Structures can show the parent of a compound that is named as a salt.

Target: T1, h P2X3 (Homo sapiens, UniProt P56373)
T1 sequence (P56373 1-397): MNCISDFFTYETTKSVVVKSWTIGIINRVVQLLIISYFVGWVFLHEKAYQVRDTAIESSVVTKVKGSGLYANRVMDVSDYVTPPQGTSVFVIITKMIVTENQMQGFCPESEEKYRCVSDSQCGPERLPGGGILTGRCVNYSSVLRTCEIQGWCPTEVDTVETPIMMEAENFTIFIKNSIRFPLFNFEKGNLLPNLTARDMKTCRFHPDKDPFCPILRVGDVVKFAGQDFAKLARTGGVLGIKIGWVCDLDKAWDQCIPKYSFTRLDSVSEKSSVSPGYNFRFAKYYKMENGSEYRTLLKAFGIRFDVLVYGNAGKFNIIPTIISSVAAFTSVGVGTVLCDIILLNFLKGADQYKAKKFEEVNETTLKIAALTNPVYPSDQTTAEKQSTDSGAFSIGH
Test: In vitro electrophysiology assay for P2X3 (automated whole-cell patch clamp, Sophion Qube)
Assay type: cell-based
Conditions: Table 6; range of activity; inhibition of P2X3 current, agonist α,β-MeATP (800 nM)
Experimental: Pharmacological Activity of the Compounds of the Invention In Vitro Electrophysiology Assay for P2X3
Cells expressing P2X3 receptors were grown according to standard practice and maintained at 37° C. in a 5% humidified CO2 atmosphere. The cells were seeded into T175 flask 2 days prior to the day of the assay and dissociated from the flasks using TrypLE when grown to confluence of 80-90%. The dissociated cells were resuspended in serum free media at a cell density of 3×10^6 cells/ml and loaded onto the Sophion Qube automated patch-clamp system. The extracellular assay buffer contained 145 mM NaCl, 4 mM KCl, 2 mM CaCl2), 1 mM MgCl2, 10 mM HEPES, and 10 mM glucose at pH 7.4. The intracellular assay solution contained 140 mM CsF, 10 mM NaCl, 10 mM EGTA, 10 mM HEPES at pH 7.2. Agonist stock solutions were prepared in H2O and diluted in bath solution prior to use. All antagonists were prepared as 10 mM stock solutions in DMSO and diluted in bath solution prior to use. All experiments were performed under the whole-cell patch clamp configuration at room temperature with 384 individual cells being voltage clamped at −60 mV simultaneously on the Sophion Qube instrument. Two baseline responses were established with the application of α,β-MeATP (800 nM), with the subsequent agonist applications being washed out using extracellular assay buffer containing 0.5 U/ml apyrase. Following the second agonist application, antagonist was incubated in the absence of α,β-MeATP for 10 minutes. After antagonist preincubation, 800 nM α,β-MeATP and antagonist were co-administered to determine the inhibitory effect of the antagonist. One concentration of an antagonist was assessed against a single cell, with different concentrations of the antagonist applied to other cells on the 384 recording substrate. The control P2X3 current amplitude was taken from the peak current amplitude from the second agonist response prior to preincubation with antagonist. The peak P2X3 current amplitude in the presence of antagonist was used to calculate the inhibitory effect at each concentration of the antagonist according to the following equation: […]
Concentration-response curves were constructed from ten different concentrations with each concentration of antagonist tested on at least two individual cells. The concentration of the antagonist to inhibit P2X3 current by 50% (IC50) was determined by fitting the data with the following equation: […]
Where ‘a’ is minimum response, ‘b’ is maximum response, ‘c’ is IC50 and ‘d’ is Hill slope.
The results for individual compounds are provided below in Table 6 and are expressed as range of activity.
The activity of the comparative examples A and B have been tested in the in vitro Electrophysiology Assay for P2X3 as described above.

Row | Structure (SMILES) | IC50 [µM]
1 | COc1cc(-n2nccc2C)cc2c(N[C@H](C)c3ccc(C)nn3)ncnc12 [Example 102, (R)-8-methoxy-6-(5-methyl-1H-pyrazol-1-yl)-N-(1-(6-methylpyridazin-3-yl)ethyl)quinazolin-4-amine] | 3.16 to 31.6
2 | COc1cc(-n2ccc(C)n2)cc2c(N[C@H](C)c3ccc(C)nn3)ncnc12 [Example 103, (R)-8-methoxy-6-(3-methyl-1H-pyrazol-1-yl)-N-(1-(6-methylpyridazin-3-yl)ethyl)quinazolin-4-amine] | 0.316 to 3.16
3 | COc1cc(-n2cc(Cl)cn2)cc2c(N[C@H](C)c3cnc(C(F)(F)F)nc3)ncnc12 [Example 104, (R)-6-(4-chloro-1H-pyrazol-1-yl)-8-methoxy-N-(1-(2-(trifluoromethyl)pyrimidin-5-yl)ethyl)quinazolin-4-amine] | < 0.316
4 | COc1cc(-c2ccn(C)n2)cc2c(NC(C)c3nnc(C)o3)ncnc12 (centres unmarked) [Example 105] | 0.316 to 3.16
5 | COc1cc(-c2ncc(C)s2)cc2c(NC(C)c3nnc(C)s3)ncnc12 (centres unmarked) [Example 106, 8-methoxy-N-(1-(5-methyl-1,3,4-thiadiazol-2-yl)ethyl)-6-(5-methylthiazol-2-yl)quinazolin-4-amine] | < 0.316
6 | COc1cc(-c2ncc(F)cn2)cc2c(NC(C)c3nnc(C)o3)ncnc12 (centres unmarked) [Example 110, 6-(5-fluoropyrimidin-2-yl)-8-methoxy-N-(1-(5-methyl-1,3,4-oxadiazol-2-yl)ethyl)quinazolin-4-amine] | 0.316 to 3.16
7 | COc1cc(-c2ncc(C)s2)cc2c(NCc3nnc(C)s3)ncnc12 [Example 114, 8-methoxy-N-((5-methyl-1,3,4-thiadiazol-2-yl)methyl)-6-(5-methylthiazol-2-yl)quinazolin-4-amine] | < 0.316
8 | COc1cc(-c2ncc(C)s2)cc2c(NCc3ccn(C)c(=O)c3)ncnc12 [Example 115, 4-(((8-methoxy-6-(5-methylthiazol-2-yl)quinazolin-4-yl)amino)methyl)-1-methylpyridin-2(1H)-one] | < 0.316
9 | COc1cc(-c2ncc(C)s2)cc2c(NCc3ncc(F)cc3F)ncnc12 [Example 118, N-((3,5-difluoropyridin-2-yl)methyl)-8-methoxy-6-(5-methylthiazol-2-yl)quinazolin-4-amine] | < 0.316
10 | COc1cc(-c2ncc(C)s2)cc2c(NCc3ccc(F)cn3)ncnc12 [Example 119, N-((5-fluoropyridin-2-yl)methyl)-8-methoxy-6-(5-methylthiazol-2-yl)quinazolin-4-amine] | < 0.316
11 | COc1cc(-c2ccc(F)cn2)cc2c(NCc3noc(C)n3)ncnc12 [Example 132, 6-(5-Fluoropyridin-2-yl)-8-methoxy-N-((5-methyl-1,2,4-oxadiazol-3-yl)methyl)quinazolin-4-amine] | 0.316 to 3.16

Results, then the compound that gave them:

Row | IC50 [µM] | Structure (SMILES)
12 | 0.316 to 3.16 | COc1cc(-c2ccc(F)cn2)cc2c(NCc3nc(C)no3)ncnc12 [Example 133, 6-(5-fluoropyridin-2-yl)-8-methoxy-N-((3-methyl-1,2,4-oxadiazol-5-yl)methyl)quinazolin-4-amine]
13 | 0.316 to 3.16 | COc1cc(-c2ccc(F)cn2)cc2c(NCc3nnc(C)o3)ncnc12 [Example 134, 6-(5-fluoropyridin-2-yl)-8-methoxy-N-((5-methyl-1,3,4-oxadiazol-2-yl)methyl)quinazolin-4-amine]
14 | 0.316 to 3.16 | COc1cc(-c2ccc(F)cn2)cc2c(NCc3cc(C)no3)ncnc12 [Example 135, 6-(5-fluoropyridin-2-yl)-8-methoxy-N-((3-methylisoxazol-5-yl)methyl)quinazolin-4-amine]
15 | 0.316 to 3.16 | COc1cc(-c2ccc(F)cn2)cc2c(NCc3cc(C)on3)ncnc12 [Example 138, 6-(5-fluoro-2-pyridyl)-8-methoxy-N-[(5-methylisoxazol-3-yl)methyl]quinazolin-4-amine]
16 | < 0.316 | COc1cc(-c2ccc(C)cn2)cc2c(NCc3cc(C)on3)ncnc12 [Example 139, 8-methoxy-N-[(5-methylisoxazol-3-yl)methyl]-6-(5-methyl-2-pyridyl)quinazolin-4-amine]
17 | 0.316 to 3.16 | COc1cc(-c2ccc(F)cn2)cc2c(NCc3ccn(C)n3)ncnc12 [Example 140, 6-(5-fluoro-2-pyridyl)-8-methoxy-N-[(1-methylpyrazol-3-yl)methyl]quinazolin-4-amine]
18 | 0.316 to 3.16 | COc1cc(-c2ccc(C)cn2)cc2c(NCc3ccn(C)n3)ncnc12 [Example 141, 8-methoxy-N-[(1-methylpyrazol-3-yl)methyl]-6-(5-methyl-2-pyridyl)quinazolin-4-amine]
19 | 0.316 to 3.16 | COc1cc(-c2ccc(F)cn2)cc2c(NCc3ccn(C)c(=O)c3)ncnc12 [Example 147, 4-(((6-(5-fluoropyridin-2-yl)-8-methoxyquinazolin-4-yl)amino)methyl)-1-methylpyridin-2(1H)-one]
20 | 0.316 to 3.16 | COc1cc(-c2ccc(F)cn2)cc2c(NCc3cc[nH]c(=O)c3)ncnc12 [Example 148, 4-(((6-(5-fluoropyridin-2-yl)-8-methoxyquinazolin-4-yl)amino)methyl)pyridin-2(1H)-one]
21 | 0.316 to 3.16 | COc1cc(-c2ncc(C)cn2)cc2c(NCc3nc(C)no3)ncnc12 [Example 156, 8-Methoxy-N-((3-methyl-1,2,4-oxadiazol-5-yl)methyl)-6-(5-methylpyrimidin-2-yl)quinazolin-4-amine]
22 | 0.316 to 3.16 | COc1cc(-c2ccc(F)cn2)cc2c(N[C@H](C)c3ccn(C)n3)ncnc12 [Example 158, 6-(5-fluoro-2-pyridyl)-8-methoxy-N-[(1R)-1-(1-methylpyrazol-3-yl)ethyl]quinazolin-4-amine]
23 | 3.16 to 31.6 | COc1cc(-c2ncc(C)cn2)cc2c(NCC(=O)N3CCOCC3)ncnc12 [Example 160, 2-((8-methoxy-6-(5-methylpyrimidin-2-yl)quinazolin-4-yl)amino)-1-morpholinoethan-1-one]
24 | 0.316 to 3.16 | COc1cc(-c2ccc(F)cc2)cc2c(NCc3ccc(F)cn3)ncnc12 [Example 161, 6-(4-Fluorophenyl)-N-[(5-fluoro-2-pyridyl)methyl]-8-methoxy-quinazolin-4-amine]
25 | < 0.316 | COc1cc(-c2ccc(F)cc2)cc2c(N[C@@H](C)c3cnc(C(F)(F)F)nc3)ncnc12 [Example 185, 6-(4-fluorophenyl)-8-methoxy-N-[(1S)-1-[2-(trifluoromethyl)pyrimidin-5-yl]ethyl]quinazolin-4-amine formate]
26 | 3.16 to 31.6 | COc1cc(C2=CCOCC2)cc2c(NCc3ccc(C)nn3)ncnc12 [Example 188, 6-(3,6-Dihydro-2H-pyran-4-yl)-8-methoxy-N-((6-methylpyridazin-3-yl)methyl)quinazolin-4-amine]
